# According to PubChem BioAssay (NCI):
#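 The compound was tested at five concentrations on cells cultured in 96-well plates, with a 48-hour exposure period. Here, GI50 denotes the concentration required for 50% inhibition of growth. TGI denotes the concentration required for complete inhibition of growth.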
# Legend:
# Experiment in all cases: DTP human tumour cell line panel, 48 h
# 786-0 renal = test system: 786-0 renal
# A498 renal = test system: A498 renal
# A549 NSCLC = test system: A549 NSCLC
# ACHN renal = test system: ACHN renal
# BT-549 breast = test system: BT-549 breast
# CAKI-1 renal = test system: CAKI-1 renal
# CCRF-CEM leukemia = test system: CCRF-CEM leukemia
# COLO 205 colon = test system: COLO 205 colon
# DU-145 prostate = test system: DU-145 prostate
# EKVX NSCLC = test system: EKVX NSCLC
# HCC-2998 colon = test system: HCC-2998 colon
# HCT-116 colon = test system: HCT-116 colon
# HCT-15 colon = test system: HCT-15 colon
# HL-60(TB) leukemia = test system: HL-60(TB) leukemia
# HOP-62 NSCLC = test system: HOP-62 NSCLC
# HOP-92 NSCLC = test system: HOP-92 NSCLC
# HS 578T breast = test system: HS 578T breast
# HT29 colon = test system: HT29 colon
# IGROV1 ovarian = test system: IGROV1 ovarian
# K-562 leukemia = test system: K-562 leukemia
# KM12 colon = test system: KM12 colon
# LOX IMVI melanoma = test system: LOX IMVI melanoma
# M14 melanoma = test system: M14 melanoma
# MALME-3M melanoma = test system: MALME-3M melanoma
# MCF7 breast = test system: MCF7 breast
# MDA-MB-231 breast = test system: MDA-MB-231 breast
# MDA-MB-435 = test system: MDA-MB-435
# MDA-MB-468 breast = test system: MDA-MB-468 breast
# MOLT-4 leukemia = test system: MOLT-4 leukemia
# NCI-H226 lung = test system: NCI-H226 lung
# NCI-H23 lung = test system: NCI-H23 lung
# NCI-H460 lung = test system: NCI-H460 lung
# NCI-H522 lung = test system: NCI-H522 lung
# NCI/ADR-RES ovarian = test system: NCI/ADR-RES ovarian
# OVCAR-3 ovarian = test system: OVCAR-3 ovarian
# OVCAR-4 ovarian = test system: OVCAR-4 ovarian
# OVCAR-5 ovarian = test system: OVCAR-5 ovarian
# OVCAR-8 ovarian = test system: OVCAR-8 ovarian
# PC-3 prostate = test system: PC-3 prostate
# RPMI-8226 leukemia = test system: RPMI-8226 leukemia
# RXF 393 renal = test system: RXF 393 renal
# SF-268 CNS = test system: SF-268 CNS
# SF-295 CNS = test system: SF-295 CNS
# SF-539 CNS = test system: SF-539 CNS
# SK-MEL-2 melanoma = test system: SK-MEL-2 melanoma
# SK-MEL-28 melanoma = test system: SK-MEL-28 melanoma
# SK-MEL-5 melanoma = test system: SK-MEL-5 melanoma
# SK-OV-3 ovarian = test system: SK-OV-3 ovarian
# SN12C renal = test system: SN12C renal
# SNB-19 CNS = test system: SNB-19 CNS
# SNB-75 CNS = test system: SNB-75 CNS
# SR leukemia = test system: SR leukemia
# SW-620 colon = test system: SW-620 colon
# T-47D breast = test system: T-47D breast
# TK-10 renal = test system: TK-10 renal
# U251 CNS = test system: U251 CNS
# UACC-257 melanoma = test system: UACC-257 melanoma
# UACC-62 melanoma = test system: UACC-62 melanoma
# UO-31 renal = test system: UO-31 renal
smiles,measurement,setting,value
C#CCNC(=O)CCC(=O)OC[C@]12CC[C@@H](C(=C)C)[C@@H]1C1CC[C@@H]3[C@@]4(C)CCCNC(C)(C)[C@@H]4CC[C@@]3(C)[C@]1(C)CC2 (stereo partly drawn),GI50,786-0 renal,8.29 µM
same,TGI,786-0 renal,23.6 µM
same,GI50,A498 renal,10.3 µM
same,TGI,A498 renal,20.9 µM
same,GI50,A549 NSCLC,7.12 µM
same,TGI,A549 NSCLC,16.7 µM
same,GI50,ACHN renal,10.1 µM
same,TGI,ACHN renal,18.9 µM
same,GI50,BT-549 breast,11.3 µM
same,TGI,BT-549 breast,21.1 µM
same,GI50,CAKI-1 renal,8.1 µM
same,TGI,CAKI-1 renal,17.2 µM
same,GI50,CCRF-CEM leukemia,4.24 µM
same,TGI,CCRF-CEM leukemia,37.1 µM
same,GI50,COLO 205 colon,2.25 µM
same,TGI,COLO 205 colon,7.29 µM
same,GI50,DU-145 prostate,10 µM
same,TGI,DU-145 prostate,21.5 µM
same,GI50,EKVX NSCLC,6.5 µM
same,TGI,EKVX NSCLC,14.2 µM
same,GI50,HCC-2998 colon,2.55 µM
same,TGI,HCC-2998 colon,10.3 µM
same,GI50,HCT-116 colon,3.31 µM
same,TGI,HCT-116 colon,27.4 µM
same,GI50,HCT-15 colon,3.89 µM
same,TGI,HCT-15 colon,12.4 µM
same,GI50,HL-60(TB) leukemia,2.37 µM
same,TGI,HL-60(TB) leukemia,14 µM
same,GI50,HOP-62 NSCLC,11.7 µM
same,TGI,HOP-62 NSCLC,23.7 µM
same,GI50,HOP-92 NSCLC,7.54 µM
same,TGI,HOP-92 NSCLC,19 µM
same,GI50,HS 578T breast,9.96 µM
same,TGI,HS 578T breast,24.2 µM
same,GI50,HT29 colon,2.71 µM
same,TGI,HT29 colon,13.9 µM
same,GI50,IGROV1 ovarian,7.29 µM
same,TGI,IGROV1 ovarian,16.3 µM
same,GI50,K-562 leukemia,1.78 µM
same,TGI,K-562 leukemia,16.3 µM
same,GI50,KM12 colon,8.73 µM
same,TGI,KM12 colon,18.8 µM
same,GI50,LOX IMVI melanoma,1.23 µM
same,TGI,LOX IMVI melanoma,2.83 µM
same,GI50,M14 melanoma,6.83 µM
same,TGI,M14 melanoma,19 µM
same,GI50,MALME-3M melanoma,9.03 µM
same,TGI,MALME-3M melanoma,18.5 µM
same,GI50,MCF7 breast,2.36 µM
same,TGI,MCF7 breast,9.66 µM
same,GI50,MDA-MB-231 breast,8.83 µM
same,TGI,MDA-MB-231 breast,17.7 µM
same,GI50,MDA-MB-435,6.9 µM
same,TGI,MDA-MB-435,15.2 µM
same,GI50,MDA-MB-468 breast,2.21 µM
same,TGI,MDA-MB-468 breast,10.5 µM
same,GI50,MOLT-4 leukemia,2.42 µM
same,TGI,MOLT-4 leukemia,18.7 µM
same,GI50,NCI-H226 lung,7.58 µM
same,TGI,NCI-H226 lung,18.3 µM
same,GI50,NCI-H23 lung,7.89 µM
same,TGI,NCI-H23 lung,16.1 µM
same,GI50,NCI-H460 lung,7.89 µM
same,TGI,NCI-H460 lung,18.6 µM
same,GI50,NCI-H522 lung,11.7 µM
same,TGI,NCI-H522 lung,25.4 µM
same,GI50,NCI/ADR-RES ovarian,5.48 µM
same,TGI,NCI/ADR-RES ovarian,16.6 µM
same,GI50,OVCAR-3 ovarian,7.73 µM
same,TGI,OVCAR-3 ovarian,18.2 µM
same,GI50,OVCAR-4 ovarian,9.11 µM
same,TGI,OVCAR-4 ovarian,20.8 µM
same,GI50,OVCAR-5 ovarian,9.38 µM
same,TGI,OVCAR-5 ovarian,17.9 µM
same,GI50,OVCAR-8 ovarian,11.1 µM
same,TGI,OVCAR-8 ovarian,33.8 µM
same,GI50,PC-3 prostate,4.8 µM
same,TGI,PC-3 prostate,16.3 µM
same,GI50,RPMI-8226 leukemia,4.15 µM
same,TGI,RPMI-8226 leukemia,20.7 µM
same,GI50,RXF 393 renal,3.51 µM
same,TGI,RXF 393 renal,13.6 µM
same,GI50,SF-268 CNS,10.5 µM
same,TGI,SF-268 CNS,23.8 µM
same,GI50,SF-295 CNS,3.54 µM
same,TGI,SF-295 CNS,12.2 µM
same,GI50,SF-539 CNS,7.48 µM
same,TGI,SF-539 CNS,15.7 µM
same,GI50,SK-MEL-2 melanoma,11.7 µM
same,TGI,SK-MEL-2 melanoma,23.3 µM
same,GI50,SK-MEL-28 melanoma,8.2 µM
same,TGI,SK-MEL-28 melanoma,16.5 µM
same,GI50,SK-MEL-5 melanoma,6.78 µM
same,TGI,SK-MEL-5 melanoma,14.4 µM
same,GI50,SK-OV-3 ovarian,9.94 µM
same,TGI,SK-OV-3 ovarian,20 µM
same,GI50,SN12C renal,7.89 µM
same,TGI,SN12C renal,16.7 µM
same,GI50,SNB-19 CNS,8.91 µM
same,TGI,SNB-19 CNS,17.6 µM
same,GI50,SNB-75 CNS,9.12 µM
same,TGI,SNB-75 CNS,18.7 µM
same,GI50,SR leukemia,> 64.8 µM
same,TGI,SR leukemia,> 64.8 µM
same,GI50,SW-620 colon,7.25 µM
same,TGI,SW-620 colon,16.7 µM
same,GI50,T-47D breast,8.06 µM
same,TGI,T-47D breast,21.1 µM
same,GI50,TK-10 renal,10.1 µM
same,TGI,TK-10 renal,22 µM
same,GI50,U251 CNS,6.62 µM
same,TGI,U251 CNS,16.8 µM
same,GI50,UACC-257 melanoma,2.51 µM
same,TGI,UACC-257 melanoma,9.16 µM
same,GI50,UACC-62 melanoma,9.04 µM
same,TGI,UACC-62 melanoma,18.1 µM
same,GI50,UO-31 renal,6.96 µM
same,TGI,UO-31 renal,14.9 µM
